Laboratory results as given in patent publication US20240382629A1, “HETEROBIVALENT AND HOMOBIVALENT AGENTS TARGETING FIBROBLAST ACTIVATION PROTEIN ALPHA AND/OR PROSTATE-SPECIFIC MEMBRANE ANTIGEN” (The Johns Hopkins University, priority 2021, published 2024).
Like-named read-outs stand apart in the source and are kept apart here.

Legend:
[1] = system: SK-MEL-24 tumor; assay: PET imaging and biodistribution in SK-MEL-24 tumor-bearing mice; assay type: in vivo, mouse; details: SK-MEL-24 in NSG mice, 20 μCi, in %ID/g
Procedure: (§1) Cell uptake assays, flow cytometry, and IHC were performed as described previously. Banerjee et al., 2019; Nimmagadda et al., 2018. PET imaging and biodistribution Sequential PET imaging and biodistribution studies were conducted to quantify and validate PET imaging data. Briefly, tumor-bearing mice were administrated approximately 7.4 MBq of radiotracer in 150 μL saline via tail-vein injection. They were randomized into the indicated groups of 3-4 mice before radiotracer injection.
(§2) In Experiment 2, SK-MEL-24 tumor-bearing mice (n=3-4) were investigated.
(§3) Dose: 20 μCi, n=3 at 1 h and n=4 at 2 and 4 h per group, Tumor model: SK-MEL-24 in NSG mice

[2] = as above; assay type: in vivo, mouse; details: mouse, intravenous, SK-MEL-24 in NSG mice, 20 μCi; for tissue uptake at 1 h: n=3
Procedure: as §1, §2, §3

[3] = target: PSMA (Homo sapiens (Human), UniProt Q04609); assay: PSMA competitive inhibition assay (NAAG substrate, LNCaP cell lysate); assay type: biochemical
PSMA, sequence (Q04609 whole entry): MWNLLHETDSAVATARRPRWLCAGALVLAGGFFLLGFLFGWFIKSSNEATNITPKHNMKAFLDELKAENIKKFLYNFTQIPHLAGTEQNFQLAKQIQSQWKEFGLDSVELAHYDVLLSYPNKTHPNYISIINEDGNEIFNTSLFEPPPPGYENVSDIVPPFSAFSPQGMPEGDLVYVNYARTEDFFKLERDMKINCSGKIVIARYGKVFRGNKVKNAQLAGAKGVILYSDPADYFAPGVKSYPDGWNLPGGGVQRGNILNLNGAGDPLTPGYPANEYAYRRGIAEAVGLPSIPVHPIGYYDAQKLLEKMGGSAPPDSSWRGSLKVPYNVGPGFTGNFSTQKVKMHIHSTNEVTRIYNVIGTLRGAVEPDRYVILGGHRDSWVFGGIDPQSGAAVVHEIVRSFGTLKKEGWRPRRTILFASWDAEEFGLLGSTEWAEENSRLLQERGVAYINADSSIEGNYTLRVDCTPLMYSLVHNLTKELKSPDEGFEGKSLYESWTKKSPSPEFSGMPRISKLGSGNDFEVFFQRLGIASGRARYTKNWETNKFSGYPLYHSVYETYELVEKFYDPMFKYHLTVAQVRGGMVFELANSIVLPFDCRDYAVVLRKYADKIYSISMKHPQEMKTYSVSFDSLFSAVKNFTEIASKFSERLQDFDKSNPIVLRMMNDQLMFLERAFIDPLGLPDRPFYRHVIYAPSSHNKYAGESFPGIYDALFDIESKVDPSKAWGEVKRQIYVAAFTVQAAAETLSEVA
Procedure: (§4) PSMA binding affinities of the compounds were determined using a competitive inhibition assay as previously reported. […] FAP, prolyl endopeptidase (PREP), and […] (DPPIV) inhibition assays: Recombinant enzymes (FAP, PREP, DPPIV) were purchased from R&D Systems (Minneapolis, MN). […] Z-Gly-Pro-AMC was used as a substrate for FAP and PREP. H-Gly-Pro-AMC was used as a substrate for DPPIV. The recombinant enzyme (0.4 μg/mL) was incubated with varying amounts of the test articles in the presence of the designated substrate (80 μM) for 10 min at room temperature. Fluorescence intensity was measured with 380 nm excitation and 460 nm emission using the Cytation 5 Cell Imaging Multi-Mode Reader (BioTek, Winooski, VT). IC50 and Ki values were obtained using a sigmoidal dose-response function.

[4] = system: FAP+ HT-1080 tumors; assay: Small animal PET/CT of ^68Ga-labeled SB-FAP-01 in FAP+ HT-1080 and wild type tumors; assay type: in vivo; details: 60 minutes after intravenous administration
Procedure: Small animal PET/CT imaging was performed at 60 minutes after intravenous administration to this mirroring experimental model; and […]

[5] = target: DPPIV (Homo sapiens (Human), UniProt P27487); assay: DPPIV inhibition assay (recombinant enzyme, H-Gly-Pro-AMC substrate); assay type: biochemical; details: Table 4; read-out: DPPIV IC50
DPPIV, sequence (P27487 whole entry): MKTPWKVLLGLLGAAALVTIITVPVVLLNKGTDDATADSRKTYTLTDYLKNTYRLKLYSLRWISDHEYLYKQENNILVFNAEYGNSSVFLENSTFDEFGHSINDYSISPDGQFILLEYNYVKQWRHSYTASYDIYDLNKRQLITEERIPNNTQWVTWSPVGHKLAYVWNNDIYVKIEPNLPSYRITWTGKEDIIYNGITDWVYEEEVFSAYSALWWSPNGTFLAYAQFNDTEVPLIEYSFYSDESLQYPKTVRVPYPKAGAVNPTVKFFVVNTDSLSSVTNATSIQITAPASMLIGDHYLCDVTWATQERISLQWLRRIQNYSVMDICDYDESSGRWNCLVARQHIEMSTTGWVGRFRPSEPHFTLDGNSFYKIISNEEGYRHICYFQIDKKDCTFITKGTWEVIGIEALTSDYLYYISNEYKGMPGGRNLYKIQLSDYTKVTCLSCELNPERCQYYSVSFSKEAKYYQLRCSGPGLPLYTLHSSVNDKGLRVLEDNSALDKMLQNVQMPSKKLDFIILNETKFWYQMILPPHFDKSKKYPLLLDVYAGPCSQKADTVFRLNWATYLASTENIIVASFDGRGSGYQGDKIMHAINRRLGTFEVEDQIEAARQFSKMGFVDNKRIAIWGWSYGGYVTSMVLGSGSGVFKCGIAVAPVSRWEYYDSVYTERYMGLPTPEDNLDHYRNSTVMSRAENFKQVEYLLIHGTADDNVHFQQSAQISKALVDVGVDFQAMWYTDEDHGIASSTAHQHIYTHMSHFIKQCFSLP
Procedure: as §4

[6] = target: FAP (Homo sapiens (Human), UniProt Q12884); assay: FAP inhibition assay (recombinant enzyme, Z-Gly-Pro-AMC substrate); assay type: biochemical
FAP, sequence (Q12884 whole entry): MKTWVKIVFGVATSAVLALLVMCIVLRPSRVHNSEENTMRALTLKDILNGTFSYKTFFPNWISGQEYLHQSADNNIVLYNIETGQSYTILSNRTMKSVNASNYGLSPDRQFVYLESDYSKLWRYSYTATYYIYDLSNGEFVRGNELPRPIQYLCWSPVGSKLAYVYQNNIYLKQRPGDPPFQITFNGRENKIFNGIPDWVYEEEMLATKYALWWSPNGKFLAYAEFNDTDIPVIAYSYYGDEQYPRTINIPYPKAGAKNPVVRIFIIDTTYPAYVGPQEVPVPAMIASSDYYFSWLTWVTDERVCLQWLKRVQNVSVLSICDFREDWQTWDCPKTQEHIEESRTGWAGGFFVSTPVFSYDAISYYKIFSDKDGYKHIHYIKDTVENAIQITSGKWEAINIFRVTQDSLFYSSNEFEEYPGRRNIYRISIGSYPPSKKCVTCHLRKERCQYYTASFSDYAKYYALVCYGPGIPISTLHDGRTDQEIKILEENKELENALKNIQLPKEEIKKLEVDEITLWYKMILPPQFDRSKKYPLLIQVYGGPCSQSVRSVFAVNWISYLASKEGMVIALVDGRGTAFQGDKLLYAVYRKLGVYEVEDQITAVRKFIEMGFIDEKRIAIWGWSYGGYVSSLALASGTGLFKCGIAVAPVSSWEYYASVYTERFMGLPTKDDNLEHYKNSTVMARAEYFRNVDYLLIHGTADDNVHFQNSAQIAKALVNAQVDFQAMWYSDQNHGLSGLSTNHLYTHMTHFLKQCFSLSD
Procedure: as §4

[7] = target: PREP (Homo sapiens (Human), UniProt P48147); assay: PREP inhibition assay (recombinant enzyme, Z-Gly-Pro-AMC substrate); assay type: biochemical; details: Table 4
PREP, sequence (P48147 whole entry): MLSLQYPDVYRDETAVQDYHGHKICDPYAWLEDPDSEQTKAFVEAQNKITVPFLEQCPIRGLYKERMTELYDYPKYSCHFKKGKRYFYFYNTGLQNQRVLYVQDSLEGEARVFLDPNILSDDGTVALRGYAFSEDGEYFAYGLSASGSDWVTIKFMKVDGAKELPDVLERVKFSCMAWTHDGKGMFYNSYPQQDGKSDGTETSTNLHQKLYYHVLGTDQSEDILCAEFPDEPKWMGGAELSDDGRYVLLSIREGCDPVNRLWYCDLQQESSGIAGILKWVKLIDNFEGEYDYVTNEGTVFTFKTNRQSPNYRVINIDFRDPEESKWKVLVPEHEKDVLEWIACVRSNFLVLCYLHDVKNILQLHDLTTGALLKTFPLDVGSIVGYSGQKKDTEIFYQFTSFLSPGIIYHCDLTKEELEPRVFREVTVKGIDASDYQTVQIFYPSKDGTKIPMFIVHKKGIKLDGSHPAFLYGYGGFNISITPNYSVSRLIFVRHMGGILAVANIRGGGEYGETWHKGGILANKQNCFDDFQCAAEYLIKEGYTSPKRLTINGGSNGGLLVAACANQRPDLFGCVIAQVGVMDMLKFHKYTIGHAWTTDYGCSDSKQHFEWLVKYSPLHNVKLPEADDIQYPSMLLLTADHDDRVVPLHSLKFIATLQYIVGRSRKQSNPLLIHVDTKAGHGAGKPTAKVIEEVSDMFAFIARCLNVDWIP
Procedure: as §4

## N#C[C@@H]1CCCN1C(=O)CNC(=O)c1ccnc2ccc(OCCCNC(=O)CCc3cn(CCOCCOCCOCCOCCOCCOCCC(=O)N[C@@H](CCCCNC(=O)CN4CCN(CC(=O)O)CCN(CC(=O)O)CC4)C(=O)NCCCCC(=O)N(CCCC[C@H](NC(=O)N[C@@H](CCC(=O)O)C(=O)O)C(=O)O)Cc4ccc(Br)cc4)nn3)cc12
[1]; 1 h, n=3
  Biodistribution: Blood: 9.73 ± 0.29
  Biodistribution: Bone: 6.00 ± 0.27
  Biodistribution: Fat: 0.80 ± 0.31
  Biodistribution: Heart: 4.36 ± 0.23
  Biodistribution: Kidney: 8.08 ± 1.48
  Biodistribution: Liver: 5.30 ± 0.77
  Biodistribution: Lung: 7.30 ± 1.16
  Biodistribution: Muscle: 2.99 ± 0.18
  Biodistribution: Panc: 9.98 ± 0.99
  Biodistribution: SKMEL24: 13.25 ± 1.32
  Biodistribution: Sm in: 6.52 ± 0.85
  Biodistribution: Spleen: 3.06 ± 0.46
  Biodistribution: Stomach: 3.29 ± 1.04
[1]; 2 h, n=4
  Biodistribution: Bladder: 4.76 ± 2.68
  Biodistribution: Blood: 6.36 ± 0.89
  Biodistribution: Bone: 5.61 ± 1.73
  Biodistribution: Fat: 0.91 ± 0.83
  Biodistribution: Heart: 2.92 ± 0.27
  Biodistribution: Kidney: 8.05 ± 1.27
  Biodistribution: Liver: 5.82 ± 0.72
  Biodistribution: Lung: 5.76 ± 0.57
  Biodistribution: Muscle: 2.24 ± 0.42
  Biodistribution: Panc: 6.66 ± 0.38
  Biodistribution: SKMEL24: 12.48 ± 1.03
  Biodistribution: Sm in: 5.44 ± 1.52
  Biodistribution: Spleen: 2.56 ± 0.40
  Biodistribution: Stomach: 3.20 ± 0.85
[1]; 4 h, n=4
  Biodistribution: Bladder: 4.63 ± 1.72
  Biodistribution: Blood: 3.29 ± 0.07
  Biodistribution: Bone: 3.42 ± 0.92
  Biodistribution: Fat: 0.49 ± 0.14
  Biodistribution: Heart: 1.87 ± 0.26
  Biodistribution: Kidney: 7.26 ± 3.43
  Biodistribution: Liver: 6.03 ± 1.00
  Biodistribution: Lung: 4.55 ± 0.51
  Biodistribution: Muscle: 1.32 ± 0.22
  Biodistribution: Panc: 4.48 ± 0.88
  Biodistribution: SKMEL24: 9.82 ± 3.39
  Biodistribution: Spleen: 2.69 ± 0.44
  Biodistribution: Stomach: 2.23 ± 0.58
[2]; bladder, read-out: Biodistribution: Bladder
  tissue uptake at 1 h: 3.53 ± 0.52 %ID/g
[2]; lacrimal gland, read-out: Biodistribution: Lac gl
  tissue uptake at 1 h: 9.2 ± 1.74 %ID/g
[2]; lacrimal gland, 2 h, n=4, read-out: Biodistribution: Lac gl
  tissue uptake at 2 h: 7 ± 2.22 %ID/g
[2]; lacrimal gland, n=4, read-out: Biodistribution: Lac gl
  tissue uptake at 4 h: 3.01 ± 1.94 %ID/g
[2]; salivary gland, read-out: Biodistribution: Sal gl
  tissue uptake at 1 h: 12.6 ± 2.46 %ID/g
[2]; salivary gland, n=4, read-out: Biodistribution: Sal gl
  tissue uptake at 4 h: 4.47 ± 0.89 %ID/g
[2]; small intestine, n=4, read-out: Biodistribution: Sm in
  tissue uptake at 4 h: 3.54 ± 0.57 %ID/g

## N#C[C@@H]1CCCN1C(=O)CNC(=O)c1ccnc2ccc(OCCCNC(=O)CCc3cn(CCOCCOCCOCCC(=O)N[C@@H](CCCCNC(=O)CN4CCN(CC(=O)O)CCN(CC(=O)O)CCN(CC(=O)O)CC4)C(=O)NCCCCC(=O)N(CCCC[C@H](NC(=O)N[C@@H](CCC(=O)O)C(=O)O)C(=O)O)Cc4ccc(Br)cc4)nn3)cc12 [SB-FAP-01, (14S,27S,31S)-22-(4-bromobenzyl)-1-(4-(3-((3-((4-((2-((S)-2-cyanopyrrolidin-1-yl)-2-oxoethyl)carbamoyl)quinolin-6-yl)oxy)propyl)amino)-3-oxopropyl)-1H-1,2,3-triazol-1-yl)-12,15,21,29-tetraoxo-14-(4-(2-(4,7,10-tris(carboxymethyl)-1,4,7,10-tetraazacyclododecan-1-yl)acetamido)butyl)-3,6,9-trioxa-13,16,22,28,30-pentaazatritriacontane-27,31,33-tricarboxylic acid]
[3]; 95% CI, read-out: PSMA Binding affinity Ki (95% CI)
  Ki: 7.3 to 37.9 nM
[3]; Table 4
  IC50: 83.2 nM
[3]; Table 4, read-out: PSMA Ki
  Ki: 16.6 nM
[3]; read-out: PSMA Binding affinity Ki
  Ki: 16.6 nM
[4]
  PET/CT tumor imaging: able to image tumors derived from FAP+ HT-1080 human fibrosis cells engineered to overexpressed FAP, but not those which are not
[5]
  IC50: 16900 nM
[6]; 95% CI, read-out: FAP Binding affinity Ki (95% CI)
  Ki: 0.25 to 0.51 nM
[6]; Table 4
  IC50: 1.79 nM
[6]; Table 4, read-out: FAP Ki
  Ki: 0.36 nM
[6]; read-out: FAP Binding affinity Ki
  Ki: 0.36 nM
[7]
  IC50: 350 nM
